pIC50: −log10 of the molar value. The source made the active and inactive calls. The calls are words filed in the database; no cut-off is given here.
How the values were obtained:
[1] = Induction of apoptosis in mouse BaF3 cells assessed as survival population at 0.5 uM measured after 48 hrs by Annexin V-FITC/propidium iodide staining based flow cytometry(reference value: 96.35 %); format: toxicity, cell-based; conditions: read-out: Activity
[2] = Induction of apoptosis in mouse BaF3 cells assessed as survival population at 0.1 uM measured after 48 hrs by Annexin V-FITC/propidium iodide staining based flow cytometry(reference value: 96.35 %); format: toxicity, cell-based; conditions: read-out: Activity
[3] = Clearance in 12 hrs fasted Sprague-Dawley rat at 2 mg/kg, iv measured upto 24 hrs by LC-MS analysis; format: ADME, organism-based; conditions: in vivo
[4] = AUC (0-t) in 12 hrs fasted Sprague-Dawley rat at 15 mg/kg, po measured upto 24 hrs by LC-MS analysis; format: ADME, organism-based; parameters: route oral, dose 15 mg/kg, time <=24; conditions: in vivo
[5] = Cmax in 12 hrs fasted Sprague-Dawley rat at 15 mg/kg, po measured upto 24 hrs by LC-MS analysis; format: ADME, organism-based; parameters: route oral, dose 15 mg/kg, time <=24; conditions: in vivo
[6] = Tmax in 12 hrs fasted Sprague-Dawley rat at 15 mg/kg, po measured upto 24 hrs by LC-MS analysis; format: ADME, organism-based; conditions: in vivo
HL-60 = test: Antiproliferative activity against human HL-60 cells expressing wild type FLT3 assessed as reduction in cell viability measured after 72 hrs by MTS assay; format: functional, cell-based; conditions: HL-60, 72 h
MOLM-13 [7] = test: Antiproliferative activity against human MOLM-13 cells harboring FLT3-ITD mutant assessed as reduction in cell viability measured after 72 hrs by MTS assay; format: functional, cell-based; conditions: MOLM-13, 72 h
[8] = Antiproliferative activity against mouse Ba/F3 FLT3-ITD cells assessed as reduction in cell viability measured after 72 hrs by MTS assay; format: functional, cell-based
[9] = target: Fibroblast growth factor receptor 1 (Homo sapiens, UniProt P11362); test: Inhibition of FGFR1 (unknown origin)
[10] = Induction of apoptosis in mouse Ba/F3 FLT3-ITD cells assessed as survival population at 0.1 uM measured after 48 hrs by Annexin V-FITC/propidium iodide staining based flow cytometry(reference value: 93.99 %); format: functional
[11] = Induction of apoptosis in mouse Ba/F3 FLT3-ITD cells assessed as survival population at 0.5 uM measured after 48 hrs by Annexin V-FITC/propidium iodide staining based flow cytometry(reference value: 93.99 %); format: functional
[12] = Induction of apoptosis in mouse Ba/F3 FLT3-ITD cells assessed as survival population at 1 uM measured after 48 hrs by Annexin V-FITC/propidium iodide staining based flow cytometry(reference value: 93.99 %); format: functional
MOLM-13 [13] = test: Induction of apoptosis in human MOLM-13 cells assessed as survival population at 1 uM measured after 48 hrs by Annexin V-FITC/propidium iodide staining based flow cytometry(reference value: 97.35 %); format: functional
MV4-11 [14] = test: Induction of apoptosis in human MV4-11 cells assessed as survival population at 0.1 uM measured after 48 hrs by Annexin V-FITC/propidium iodide staining based flow cytometry(reference value: 98.01 %); format: functional
MV4-11 [15] = test: Induction of apoptosis in human MV4-11 cells assessed as survival population at 0.5 uM measured after 48 hrs by Annexin V-FITC/propidium iodide staining based flow cytometry(reference value: 98.01 %); format: functional
MV4-11 [16] = test: Induction of apoptosis in human MV4-11 cells assessed as survival population at 1 uM measured after 48 hrs by Annexin V-FITC/propidium iodide staining based flow cytometry(reference value: 98.01 %); format: functional
[17] = target: Receptor-type tyrosine-protein kinase FLT3 (Homo sapiens) (UniProt P36888); test: Inhibition of FLT3 phosphorylation in human MV4-11 cells assessed as reduction in phosphorylated FLT3 level measured after 12 hrs by western blot analysis; format: cell-based
[18] = target: T1, Receptor-type tyrosine-protein kinase FLT3 (Mus musculus) (UniProt Q00342); test: Inhibition of FLT3 phosphorylation in mouse Ba/F3 FLT3-ITD cells assessed as reduction in phosphorylated FLT3 level measured after 12 hrs by western blot analysis; format: cell-based
T1 sequence (whole entry): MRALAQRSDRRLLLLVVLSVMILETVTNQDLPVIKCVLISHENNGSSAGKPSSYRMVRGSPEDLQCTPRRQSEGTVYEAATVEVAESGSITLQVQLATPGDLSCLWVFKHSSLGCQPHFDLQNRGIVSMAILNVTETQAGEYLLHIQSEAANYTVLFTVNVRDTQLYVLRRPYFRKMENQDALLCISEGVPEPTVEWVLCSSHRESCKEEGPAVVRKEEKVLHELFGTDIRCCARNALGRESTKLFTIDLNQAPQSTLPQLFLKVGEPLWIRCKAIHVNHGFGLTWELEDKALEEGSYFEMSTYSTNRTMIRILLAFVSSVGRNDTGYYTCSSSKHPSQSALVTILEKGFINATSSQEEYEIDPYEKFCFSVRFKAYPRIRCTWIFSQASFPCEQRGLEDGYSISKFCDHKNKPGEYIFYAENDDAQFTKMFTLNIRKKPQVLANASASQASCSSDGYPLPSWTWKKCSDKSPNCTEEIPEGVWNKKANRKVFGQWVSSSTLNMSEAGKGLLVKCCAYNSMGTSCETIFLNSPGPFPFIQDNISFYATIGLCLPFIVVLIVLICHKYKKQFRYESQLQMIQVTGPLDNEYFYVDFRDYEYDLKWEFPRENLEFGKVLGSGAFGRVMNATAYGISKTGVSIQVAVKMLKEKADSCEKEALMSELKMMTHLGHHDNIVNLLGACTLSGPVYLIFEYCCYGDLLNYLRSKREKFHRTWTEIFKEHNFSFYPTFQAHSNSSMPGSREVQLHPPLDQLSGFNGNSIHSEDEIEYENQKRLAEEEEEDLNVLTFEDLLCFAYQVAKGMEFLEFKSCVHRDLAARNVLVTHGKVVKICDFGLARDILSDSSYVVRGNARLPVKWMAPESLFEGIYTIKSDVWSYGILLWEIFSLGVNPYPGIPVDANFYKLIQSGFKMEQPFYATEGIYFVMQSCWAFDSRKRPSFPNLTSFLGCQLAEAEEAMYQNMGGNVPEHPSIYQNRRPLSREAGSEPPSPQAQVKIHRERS

[19] = Toxicity in Balb/c mouse implanted with mouse Ba/F3 FLT3-ITD cells assessed as inflammatory cell infiltration in spleen at 30 to 100 mg/kg, po administered for 14 days; format: organism-based, BaF3; conditions: in vivo, 336 h, time 14 day
[20] = Toxicity in Balb/c mouse implanted with mouse Ba/F3 FLT3-ITD cells assessed as body weight loss at 30 to 100 mg/kg, po administered for 14 days; format: organism-based, BaF3; conditions: in vivo, 336 h, time 14 day
MV4-11 [21] = test: Antitumor activity against human MV4-11 cells xenografted in Balb/c mouse assessed as tumor growth inhibition at 100 mg/kg, po administered for 28 days; format: functional, organism-based; conditions: time 28.0 day
MV4-11 [22] = test: Antitumor activity against human MV4-11 cells xenografted in Balb/c mouse assessed as reduction in tumor weight at 100 mg/kg, po administered for 28 days; format: functional, organism-based; conditions: time 28.0 day
[23] = Antitumor activity against mouse Ba/F3 FLT3-ITD cells implanted in Balb/c mouse assessed as increase in survival time at 120 mg/kg, po administered every 24 hrs (Rvb=14 days); format: functional

Sequence of Fibroblast growth factor receptor 1 (P11362 whole entry): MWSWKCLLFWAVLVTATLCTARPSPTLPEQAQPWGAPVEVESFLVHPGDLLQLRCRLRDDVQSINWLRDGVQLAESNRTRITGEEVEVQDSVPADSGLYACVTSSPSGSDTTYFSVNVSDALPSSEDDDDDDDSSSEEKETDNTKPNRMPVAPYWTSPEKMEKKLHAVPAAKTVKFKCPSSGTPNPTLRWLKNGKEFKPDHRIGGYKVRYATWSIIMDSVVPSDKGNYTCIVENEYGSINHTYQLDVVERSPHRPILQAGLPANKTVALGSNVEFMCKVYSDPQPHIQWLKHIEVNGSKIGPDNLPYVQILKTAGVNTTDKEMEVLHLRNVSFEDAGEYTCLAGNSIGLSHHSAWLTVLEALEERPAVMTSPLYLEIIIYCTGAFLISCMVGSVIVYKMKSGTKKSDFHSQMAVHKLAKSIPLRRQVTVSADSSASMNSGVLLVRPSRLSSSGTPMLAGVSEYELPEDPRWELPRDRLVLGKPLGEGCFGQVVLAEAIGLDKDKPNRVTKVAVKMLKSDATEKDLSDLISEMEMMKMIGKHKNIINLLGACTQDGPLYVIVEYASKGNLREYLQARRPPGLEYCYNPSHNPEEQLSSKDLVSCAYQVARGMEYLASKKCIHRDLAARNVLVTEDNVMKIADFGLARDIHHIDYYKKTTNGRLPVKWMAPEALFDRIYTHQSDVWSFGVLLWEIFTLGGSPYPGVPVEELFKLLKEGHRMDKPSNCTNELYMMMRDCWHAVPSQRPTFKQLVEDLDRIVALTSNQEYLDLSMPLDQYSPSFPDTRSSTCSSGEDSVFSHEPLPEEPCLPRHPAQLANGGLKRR
Sequence of Receptor-type tyrosine-protein kinase FLT3 (Homo sapiens) (P36888 whole entry): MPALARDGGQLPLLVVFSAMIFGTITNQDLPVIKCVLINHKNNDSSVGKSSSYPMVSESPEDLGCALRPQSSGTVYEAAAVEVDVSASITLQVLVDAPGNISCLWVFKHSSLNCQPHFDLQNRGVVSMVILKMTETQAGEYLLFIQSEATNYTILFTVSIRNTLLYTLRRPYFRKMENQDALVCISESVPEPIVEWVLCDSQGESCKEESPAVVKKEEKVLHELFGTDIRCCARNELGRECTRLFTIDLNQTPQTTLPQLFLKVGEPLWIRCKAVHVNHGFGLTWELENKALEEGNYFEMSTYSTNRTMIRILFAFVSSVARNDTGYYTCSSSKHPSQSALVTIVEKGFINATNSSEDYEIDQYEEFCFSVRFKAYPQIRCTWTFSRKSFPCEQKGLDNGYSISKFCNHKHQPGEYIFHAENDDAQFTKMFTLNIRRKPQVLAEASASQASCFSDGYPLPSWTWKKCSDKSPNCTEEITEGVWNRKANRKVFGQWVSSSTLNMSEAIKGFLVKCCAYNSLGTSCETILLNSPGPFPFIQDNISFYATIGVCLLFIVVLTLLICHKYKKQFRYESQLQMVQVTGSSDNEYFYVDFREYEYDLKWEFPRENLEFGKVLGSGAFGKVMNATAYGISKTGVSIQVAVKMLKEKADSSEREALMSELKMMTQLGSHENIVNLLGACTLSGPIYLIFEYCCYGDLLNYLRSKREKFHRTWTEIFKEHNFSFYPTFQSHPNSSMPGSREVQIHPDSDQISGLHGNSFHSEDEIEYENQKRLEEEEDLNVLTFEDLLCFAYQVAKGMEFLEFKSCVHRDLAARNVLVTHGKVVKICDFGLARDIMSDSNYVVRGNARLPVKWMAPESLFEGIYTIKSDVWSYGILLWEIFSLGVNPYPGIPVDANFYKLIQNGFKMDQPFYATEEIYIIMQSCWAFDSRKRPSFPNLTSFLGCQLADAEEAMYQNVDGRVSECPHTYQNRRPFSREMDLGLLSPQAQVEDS

Compound `COc1cc(CNc2ccc3c(c2)ncn3-c2ccccc2)ccc1OCCO` has a viability at 48 h, 0.5 µM [1] of 96.7%, a viability at 48 h, 0.1 µM [2] of 98.3% and a clearance [3] of 43.2 mL/min/kg. It also gave an AUC(0-t) at 24 h [4] of 2890 ng·h/mL, a Cmax [5] of 440 ng/mL and a Tmax [6] of 39 min. The pIC50 (HL-60) was less than 4.30, the pIC50 (MOLM-13 [7]) was 7.18 and the pIC50 [8] was 7.12. The pIC50 [9] was less than 6.00, the Activity [10] was 78.45% and the Activity [11] was 47.99%. For the same compound, the Activity [12] was 43.13%, the Activity (MOLM-13 [13]) was 65.52% and the Activity (MV4-11 [14]) was 94.26%. The Activity (MV4-11 [15]) was 78.6%, the Activity (MV4-11 [16]) was 68.54% and the inhibition [17] was “Active”. The inhibition [18] was “Dose-Dependent Effect”, the Activity [19] was “Non-Toxic” and the Activity [20] was “Non-Toxic”. For the same compound, the Activity (MV4-11 [21]) was “Active”, the Activity (MV4-11 [22]) was “Active” and the Time [23] was 25 days.

— ChEMBL document CHEMBL5038665, “Identification of the Benzoimidazole Compound as a Selective FLT3 Inhibitor by Cell-Based High-Throughput Screening of a Diversity Library” (J Med Chem, 2022)
